Measured values taken from PMC12189828, “Substitution of Proline Residues by 4-Fluoro-L-Proline Affects the Mechanism of the Proline-Rich Antimicrobial Peptide Api137” (Antibiotics, 2025).
Where a SMILES comes first, the peptide text is derived from it. [ ]: non-standard residue; d: D form. The star is where a group is joined. Orn(α-tetramethylguanidino) = CN(C)C(=N[C@@H](CCCN)C(=O)*)N(C)C; Pro(trans-4-F) = O=C(O)[C@@H]1C[C@@H](F)CN1

Tests used:
[1] = target: 70S ribosome isolated from E. coli BW25113 (E. coli (endogenous in E. coli BW25113)); assay: fluorescence polarisation; direct titration: 2-fold dilution series (22 steps) of crude 70S ribosome extract, cf-labeled peptide (10 uL, 40 nmol/L) added; ribosome preparation buffer (20 mmol/L HEPES-KOH, 6 mmol/L MgCl2, 30 mmol/L NH4Cl, pH 7.6); 28 +/- 1 C, 90 min
E. coli RN31 = assay: Growth inhibition of E. coli RN31 during 90 min exponential growth phase; assay type: cell-based, Escherichia coli; conditions: E. coli RN31, 33% TSB, peptide 8 µg/mL, 90 min, OD600; two biological replicates (n = 2)
Description: The following steps were performed on ice. Cells were harvested by centrifugation (4000× g, 4 °C, 25 min), washed with TICO buffer (20 mmol/L Hepes-KOH, pH 7.6, 6 mmol/L MgAc2, 30 mmol/L KAc), centrifuged (4000× g, 25 min, 4 °C), and stored at −80 °C. The cell pellet was suspended in TICO buffer (500 µL) and mixed with silica beads (zirconium glass pellets, 100 µm diameter; Carl Roth; Karlsruhe, Germany) to lyse the cells on a FastPrep-24^TM 5G (MP Biomedicals, Solon, OH, USA) using three disruption cycles (30 s, 6.0 m/s) interrupted by 1 min of incubation on ice after each cycle. Cell debris was removed by centrifugation (5000× g, 4 °C, 5 min), the supernatant was transferred to a new reaction tube, centrifuged (20,000× g, 4 °C, 20 min), the absorbance was recorded at 260 nm on a NanoPhotometer® NP80, and the sample was stored at −80 °C. […]

[2] = target: 70S ribosomes isolated from E. coli BW25113 (Escherichia coli, UniProt P60723+P61175); assay: Fluorescence polarization, competition with cf-Api137 for 70S ribosome binding (Ki); conditions: ratio of Ki to the Ki of Api137
Description: E. coli BW25113 were cultivated in LB medium and harvested by centrifugation (5000× g, 15 min, 4 °C) at an OD600 of 3–4. Cell pellets were washed in ribosome preparation buffer (20 mmol/L HEPES-KOH, 6 mmol/L MgCl2, 30 mmol/L NH4Cl, pH 7.6, 4 °C), centrifuged (4100× g, 30 min, 4 °C), and resuspended in ribosome preparation buffer (0.5 g/L) containing freshly added 2-mercaptoethanol (4 mmol/L) and lysozyme. Cells were incubated on ice for 30 min and disrupted in six cycles using a FastPrep-24^TM 5G instrument (MP Biomedicals, Eschwege, Germany) with the BigPrep 50 mL setting (40 s, 4.0 m/s), interrupted by one minute of incubation on ice between the cycles. After a centrifugation step (1620× g, 5 min, 4 °C), DNase I (5 U/mL) was added to the supernatant and incubated for 1 h on ice. Cell debris was removed by centrifugation at 16,000× g (30 min, 4 °C) and twice at 32,000× g (60 min, 4 °C). Crude ribosomes were obtained by centrifugation at 165,000× g (17 h, 4 °C). […]
Inhibition constants (Ki) were measured for the 70S ribosome extract using cf-labeled and unlabeled peptides in ribosome preparation buffer. […] Fluorescence polarization was determined on a PARADIGM^TM microplate reader in the top reading position (λex = 485 nm, λem = 535 nm). […] Ki values were calculated as described by Mathias and Jung.

[3] = system: in vitro expression of sfGFP in the presence of RF1; assay: In vitro transcription-translation (iTT) assay of sfGFP in the presence of RF1; assay type: biochemical; conditions: peptide 5 µmol/L, RF1, 37 °C, 2 h, fluorescence; normalized to absence of PrAMPs; n = 3
Description: The sfGFP expression analysis relied on the NEB PureExpress Delta RF123 Kit (New England Biolabs, Frankfurt, Germany). The DNA template encoding sfGFP with a UAG stop codon was amplified from the pY71sfGFP vector by PCR using the primers sfGFP fwd ([…]) and sfGFP rev ([…]). The release factor RF1 of the kit was diluted 50-fold (v/v) in 1× Pure System Buffer (PSB, 1 mol/L magnesium acetate, 0.5 mol/L K3PO4 (pH 7.3), 1 mol/L potassium glutamate, 1 mol/L NH4Cl, 0.5 mol/L CaCl2, 1 mol/L spermidine, 0.1 mol/L putrescine, 0.1 mol/L DTT). sfGFP expression was performed in a freshly prepared mixture of kit solution A (2 µL), kit solution B (1.5 µL), 50-fold diluted RF1 (0.5 µL), sfGFP template (0.1325 pmol, 35 ng) or water as control (0.25 µL), PSB (0.25 µL), and a PrAMP (50 or 0 µmol/L) dissolved in water (0.5 µL). The reaction mixture was transferred to a black 384-well plate (flat bottom, PS, 784900, Greiner Bio-One GmbH), covered with a lid, and incubated (37 °C, 2 h) in a microplate reader (Gemini EM, Molecular Devices, San Jose, CA, USA). Fluorescence was recorded every 10 min (λex = 485 nm, λem = 535 nm).

[4] = system: 50S subunit assembly / 70S ribosome in E. coli RN31; assay: Ribosome profile analysis (RPA), sucrose gradient of E. coli RN31 lysate; assay type: cell-based, Escherichia coli; conditions: E. coli RN31, 33% TSB, peptide 8 µg/mL, 90 min, 5–25% sucrose gradient; n = 2 (Api137 n = 7)
Description: E. coli RN31 was grown in 33% TSB (37 °C, 200 rpm) from a starting OD600 of 0.05 to an OD600 of 0.2, measured on a NanoPhotometer® (NP80; Implen; Westlake Village, CA, USA), and divided into subcultures that were inoculated with a peptide ([…]) before being cultured for 90 min (37 °C, 200 rpm). The following steps were performed on ice. Cells were harvested by centrifugation (4000× g, 4 °C, 25 min), washed with TICO buffer (20 mmol/L Hepes-KOH, pH 7.6, 6 mmol/L MgAc2, 30 mmol/L KAc), centrifuged (4000× g, 25 min, 4 °C), and stored at −80 °C. The cell pellet was suspended in TICO buffer (500 µL) and mixed with silica beads (zirconium glass pellets, 100 µm diameter; Carl Roth; Karlsruhe, Germany) to lyse the cells on a FastPrep-24^TM 5G (MP Biomedicals, Solon, OH, USA) using three disruption cycles (30 s, 6.0 m/s) interrupted by 1 min of incubation on ice after each cycle. Cell debris was removed by centrifugation (5000× g, 4 °C, 5 min), the supernatant was transferred to a new reaction tube, centrifuged (20,000× g, 4 °C, 20 min), the absorbance was recorded at 260 nm on a NanoPhotometer® NP80, and the sample was stored at −80 °C.
A 5% (w/v) sucrose solution (6.5 mL) in TICO buffer containing 2-mercaptoethanol (4 mmol/L) was poured into an open-top centrifuge tube (13.2 mL, 14 × 89 mm, Beckman Coulter) and bottomed with a 25% (w/v) sucrose solution (6.5 mL) in TICO buffer containing 2-mercaptoethanol (4 mmol/L) using a cannula. The tube was sealed with parafilm and placed horizontally at 4 °C for 3 h and vertically at 4 °C for 30 min. A portion of the upper layer (550 µL) was replaced by lysate (500 µL, A260 = 30) and centrifuged using a swing-out rotor (SW 41 Ti, 52,500× g, 4 °C, 19 h) without a brake. The contents were transferred from bottom-up to obtain equal volumes in all wells of a black 96-well plate with a flat bottom (96 Well PP black Greiner Bio-One GmbH, Frickenhausen, Germany) using the Äkta Purifier 10 system, and absorbance was recorded at a wavelength of 254 nm. Fluorescence was measured in the plate using the PARADIGM at excitation (λex) and emission (λem) wavelengths of 485 nm and 535 nm for eGFP and 585 nm and 635 nm, respectively, for mCherry and normalized to the 70S ribosome peak (set to 100%).

[5] = target: 70S ribosome isolated from E. coli BW25113 (E. coli (endogenous in E. coli BW25113)); assay: fluorescence polarisation; competition: 2-fold dilution series (21 steps) of unlabeled peptide (20 uL, 300 umol/L) pre-incubated 90 min with crude 70S ribosome extract (at ~90% of the upper Kd plateau), then cf-Api137 (10 uL, 80 nmol/L) for 90 min; ribosome preparation buffer, 28 +/- 1 C; Ki calculated from IC50

Molecule: 5(6)-carboxyfluorescein-labeled Api137 (peptide)
- Kd [1]: 244 nM

Molecule: CC[C@H](C)[C@H](NC(=O)[C@H](Cc1ccc(O)cc1)NC(=O)[C@@H](NC(=O)[C@@H]1CCCN1C(=O)[C@H](CCCNC(=N)N)NC(=O)[C@H](CC(N)=O)NC(=O)[C@H](CC(N)=O)NC(=O)[C@H](CCCN)N=C(N(C)C)N(C)C)C(C)C)C(=O)N1CCC[C@H]1C(=O)N[C@@H](CCCNC(=N)N)C(=O)N1CCC[C@H]1C(=O)N[C@@H](CCCNC(=N)N)C(=O)N1C[C@H](F)C[C@H]1C(=O)N1CCC[C@H]1C(=O)N[C@@H](Cc1c[nH]cn1)C(=O)N1CCC[C@H]1C(=O)N[C@@H](CCCNC(=N)N)C(=O)N[C@@H](CC(C)C)C(=O)O [Api844] ({Orn(α-tetramethylguanidino)}-NNRPVYIPRPR[Pro(trans-4-F)]PHPRL-OH)
- reduction of bacterial growth vs untreated control (E. coli RN31): 70%
- fold higher Ki than Api137 [2]: 8 fold
- Residual iTT (sfGFP expression relative to no PrAMP) [3]: 28 ± 1.2%
- RPA [pre-50S formation] [4]: yes

Molecule: Api137 (peptide)
- Ki [5]: 2.6 nM
